Assay results as given in PubChem BioAssay AID179 (DTP/NCI, 2004).
pEC50, pIC50: −log10 of the molar value. Several values for one entry are separate records, joined by “and”; a condition that tells them apart may be missing. Identical values can stand only once. Activity calls are given as the source filed them.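 Rule for the calls: active = compounds giving half or more protection of infected cells from virus-caused growth loss, again on retest; inactive = the rest.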 Where a SMILES comes first, the peptide text is derived from it.

Test system: CEM cells HIV-1 protection, formazan growth assay
Assay: NCI AIDS Antiviral Assay
Details: for pIC50: measured here: growth of uninfected CEM cells
Outline: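 CEM (human) cells, HIV-1 infected vs uninfected, 5-point dosing, formazan growth read-out. Retest threshold 50% protection.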

COC1/C=C/OC2(C)Oc3c(C)c(O)c4c(O)c(c(/C=N/N(C)c5ncnc6c5ncn6C5OC(CO)C(O)C5O)c(O)c4c3C2=O)NC(=O)C(C)=C/C=C/C(C)C(O)C(C)C(O)C(C)C(OC(C)=O)C1C (configuration not stated)
pEC50: < 3.70
pIC50: 3.96

CN(C)NC1=C([N+](=O)[O-])C=NN(c2ccccc2)C1
pEC50: < 4.56
pIC50: 6.33

N#Cc1ccc(Oc2cccc(Oc3ccccc3)c2)cc1C#N
pEC50: < 4.36
pIC50: < 4.36

CC(C)(NC(=O)OCc1ccccc1)C(=O)NC(Cc1ccccc1)C(=O)O (configuration not stated) (HELM PEPTIDE1{[O=C(OCc1ccccc1)[*:2]].[Aib].[O=C(O)C(Cc1ccccc1)N[*:1]]}$$$$V2.0)
pEC50: < 3.70
pIC50: < 3.70

Cn1c(=O)c2c(ncn2CCCCOc2ccc3c(c2)[n+]([O-])nc(N)[n+]3[O-])n(C)c1=O
pEC50: < 3.70
pIC50: 4.63

CC(C)=CCC[C@@H](C)C1=C(Nc2ccccc2Cl)C(O)=C(C)C(=O)C1=O
pEC50: < 3.70
pIC50: 5.81

O=C/C(=C(/Cl)c1ccc(O)cc1)c1ccccc1
pEC50: < 3.94
pIC50: 4.31

O=S1(=O)CC(N2CCOCC2)C2=C(O1)c1sc(-c3ccccc3)nc1CC2 (configuration not stated)
outcome: inactive

O=c1c(N(CCO)CCO)cn(C(c2ccccc2)(c2ccccc2)c2ccccc2)c(=O)n1C(c1ccccc1)(c1ccccc1)c1ccccc1
pEC50: < 3.70
pIC50: 5.52

COc1ccc(C2S/C(=C\c3cc(OC)c(OC)c(OC)c3)C(=O)N2NC(=O)Cc2ccccc2)cc1 (configuration not stated)
pEC50: < 4.44
pIC50: < 4.44

COCCCCCCCCCCCC(=O)OCC1OC(n2cc(C)c(=O)[nH]c2=O)CC1N=[N+]=[N-] (configuration not stated)
pEC50: 7.57
pIC50: 4.46

CCCCCCCCCCCCCCCCNCCCS(=O)(=O)O
pEC50: < 3.70
pIC50: 5.41

Oc1c(Cl)cc(Cl)c2cccnc12
outcome: inactive

Cc1cn(COCCCOCC(=O)c2ccccc2)c(=O)[nH]c1=O
pEC50: 4.03
pIC50: < 3.70

Cn1cc(NC(=O)c2cc(NC(=O)c3cc(NC(=O)/C=C/C(=O)Nc4cn(C)c(C(=O)Nc5cn(C)c(C(=O)Nc6cn(C)c(C(=O)NCCC(=N)N)n6)n5)n4)cn3C)cn2C)cc1C(=O)NCCC(=N)N
pEC50: < 5.11
pIC50: 5.84

C=CCSc1nn(CC=C)cc2ncnc1-2
pEC50: < 3.70
pIC50: < 3.70

Cn1cc(C(=O)/C(Cl)=C(\Cl)C(=O)O)c2ccccc21
outcome: inactive

COC(=O)c1sc(C(=O)OC)c2c1CSC2
outcome: inactive

CCC[CH2][Ge]([CH2]CCC)([CH2]CCC)[O]C(=O)C(OC(C)=O)c1ccccc1 (configuration not stated)
pEC50: < 3.82
pIC50: 5.37

O=c1[nH]n(Cc2ccccc2Cl)c2ccc([N+](=O)[O-])cc12
pEC50: < 3.70
pIC50: 4.16

COc1ccc(NC(=O)C2C(=O)N(c3ccc(OC)cc3)C(=O)/C2=N\NC(N)=O)cc1 (configuration not stated)
pEC50: < 4.21
pIC50: < 4.21

COc1cc2c(cc1OC)C(=O)N1CSCC1C(=O)S2 (configuration not stated)
pEC50: < 4.30
pIC50: < 4.30

CN1C(=S)Nc2ncn(C)c2S1(=O)=O
pEC50: < 4.09
pIC50: < 4.09

CC(C)(C)C(=O)C(C(=O)c1ccccc1)C(=O)C(C)(C)C
pEC50: < 3.70
pIC50: < 3.70

CN=C1CN=C(OP(=O)(N2CCOCC2)N2CCOCC2)c2cc(Cl)ccc2N1
pEC50: < 5.21
pIC50: < 5.21

C=C1CC(Cn2cc(C)c(=O)[nH]c2=O)(c2ccc(Cl)cc2)OC1=O (configuration not stated)
pEC50: < 4.70
pIC50: 6.21

CC(=O)OC1C=CC(OC(C)=O)C2C1[C@H]1C3C=CC=CC3[C@@H]2S1=O (some centres not stated)
pEC50: < 3.70
pIC50: 3.95

CCC[CH2][Sn]([CH2]CCC)([O]C(=O)c1ccc(C)c(N)c1)[O]C(=O)c1ccc(C)c(N)c1
pEC50: < 4.73
pIC50: 6.34

O=C1C=C(C(O)CCO)C(=O)c2c(O)ccc(O)c21 (configuration not stated)
outcome: inactive

CCOC(=O)C1=C(C)NC(=O)NC1c1ccc(OC)cc1OC (configuration not stated)
pEC50: < 4.51
pIC50: < 4.51

CN(C)c1ccc(-c2nc(-c3cc4c(ccc5ccccc54)oc3=O)cs2)cc1
pEC50: < 4.00
pIC50: < 4.00

O=[N+]([O-])c1ccccc1C1SCc2nc3ccccc3n21 (configuration not stated)
pEC50: < 4.41
pIC50: 4.47

COC1=CC(C)C2C[C@H]3O[C@H](O)C[C@H]4C(C)C(=O)C(O)C([C@@]2(C)C1=O)[C@@]34C (some centres not stated)
outcome: inactive

CC1C2=C(CN3C[C@H](C)CCC13)C1CC3C(C[C@@H](O)C4C[C@@H](O)CC[C@]34C)C1CC2 (some centres not stated)
pEC50: < 4.64
pIC50: < 4.64

Oc1ccc(-c2nc3ccccc3s2)c(O)c1
pEC50: < 3.83
pIC50: 4.56

CO/N=C\c1c2c(O)c3c(O)c(C)c4c(c3c1O)C(=O)C(C)(O/C=C\C(OC)C(C)C(OC(C)=O)C(C)C(O)C(C)C(O)C(C)/C=C\C=C(\C)C(=O)N2)O4 (configuration not stated)
pEC50: < 3.82
pIC50: 4.80

COC(=O)/C=C1\SC2(OC1=Nc1ccccc1)C1CC3CC(C1)CC2C3 (configuration not stated)
pEC50: < 3.70
pIC50: < 3.70

COC(=O)Oc1nn(C(=O)OC)c(=O)c2ccccc12
pEC50: < 3.70
pIC50: < 3.70

N#Cc1ncoc1N
pEC50: < 3.70
pIC50: < 3.70

OC(C1=C/C(=C\c2ccncc2)c2ccccc21)c1ccncc1 (configuration not stated)
pEC50: < 4.08
pIC50: 5.28

CNc1nc(N(C)C)nc(N(C)C)n1
pEC50: < 3.27
pIC50: 3.39

N#CC(C#N)=CC=C1c2ccccc2Sc2ccccc21
pEC50: < 4.74
pIC50: < 4.74

CN1CN(c2ccccc2)C2(CCNCC2)C1=O
pEC50: < 3.70
pIC50: < 3.70

CC(=O)Oc1c(N2CCCCC2)c(C(=O)c2ccccc2)c(O)c2ccn(N(C)C)c12
pEC50: < 3.70
pIC50: 5.08

CNC(=O)N(C)CN(C)C(=O)NC
pEC50: < 3.32
pIC50: 3.64

CCOC(=O)C1C2CCC1CC(=NNc1ccc([N+](=O)[O-])cc1[N+](=O)[O-])C2 (configuration not stated)
pEC50: < 4.30
pIC50: 4.71

COc1ccccc1NC(=O)C1=C(C)NC(C)=C(C(=O)Nc2ccccc2OC)C1c1ccccc1OC
pEC50: < 4.71
pIC50: < 4.71

CCC(=O)OC1(c2ccccc2)CCN(CCC(=O)c2ccccc2)CC1C (configuration not stated)
pEC50: < 3.70
pIC50: 5.02

Cc1ccc(C)c(C(=O)c2ccccc2C(=O)O)c1
pEC50: < 3.70
pIC50: < 3.70

O=C1OCCN(c2cccc(Cl)c2)CCO1
outcome: inactive

Nc1ncnc2c1ncn2C1OC2(CCSC2)C(O)C1O (configuration not stated)
pEC50: < 3.70
pIC50: 3.81

CC(OC(=O)NCn1cc(-c2ccccc2)nn1)c1ccccc1 (configuration not stated)
pEC50: 4.25
pIC50: 4.12

O=C1c2cccnc2S(=O)(=O)N1c1ccc(Br)cc1
pEC50: < 3.70
pIC50: 4.13

COc1ccc(-c2cc(-c3ccccc3)nc(N)c2-c2ccc3ccccc3c2)cc1
pEC50: < 3.70
pIC50: 5.61

O=S(=O)(F)c1cccc(Cl)c1C[P+](c1ccccc1)(c1ccccc1)c1ccccc1
pEC50: < 3.70
pIC50: 4.59

COc1ccc(/C=N/NC(=O)c2ccccc2Nc2ccccc2C(=O)N/N=C/c2ccc(OC)cc2)cc1
pEC50: < 3.99
pIC50: 4.07

O=S(=O)([N-]c1nc2ccccc2nc1-[n+]1ccccc1)c1ccccc1
pEC50: < 4.00
pIC50: < 4.00

CCCC(C)C(=Nc1ccc(Cl)c(Cl)c1)N(C)C (configuration not stated)
pEC50: < 3.70
pIC50: 4.55

Cc1ccc(S(=O)(=O)Nn2c3c(cc(C#N)c2=O)CCCC3)cc1
pEC50: < 3.70
pIC50: < 3.70

Oc1cc(Cl)cc2cc(Cl)cnc12
outcome: inactive

Nc1ccc(-c2cc3ccccc3[nH]2)cc1
pEC50: < 3.83
pIC50: 3.93

CCCCCCCc1ccc(OC2OC(CO)C(O)C(O)C2O)cc1 (configuration not stated)
pEC50: < 3.90
pIC50: 4.53 and 4.99

CCCc1nn(C)c(CCC(=O)N(Cc2ccccc2)Cc2ccccc2)c1CC
outcome: inactive

COc1c2occc2c(OC(C)C(=O)O)c2c(O)cc(=O)oc12 (configuration not stated)
pEC50: < 3.55
pIC50: < 3.55

C/C(=N\O)C(CN1CCCCC1)C(c1ccccc1)c1c(O)c2ccccc2oc1=O (configuration not stated)
pEC50: < 4.53
pIC50: < 4.53

Cc1ccccc1NC(=O)Cc1csc2[n+]1C(=O)/C(=C\c1ccc3c(c1)OCO3)S2
pEC50: < 3.70
pIC50: 4.41

COc1ccc2nc3cc(Cl)ccc3c(NCCCN3CCN(CCCNc4ccc5nnn6c7ccccc7c(=O)c4c56)CC3)c2c1
pEC50: 8.60
pIC50: 8.10

CC(C)(C)OC(=O)N[C@@H](Cc1ccccc1)CN1CCCC1C(=O)O (some centres not stated)
pEC50: < 2.47
pIC50: 2.59

CSc1nnc(CCC(=O)Nc2c(C)cccc2C)o1
pEC50: < 3.51
pIC50: < 3.51

CCCCCCCCOCCS(=O)(=O)O
pEC50: < 3.70
pIC50: < 3.70

CC1CC2C(=O)NC(=O)C2c2[nH]c3ccccc3c21 (configuration not stated)
outcome: inactive

CONC1CC(n2cc(C)c(=O)[nH]c2=O)OC1CO (configuration not stated)
pEC50: < 3.70
pIC50: < 3.70

CCCCCCCCCCCc1c(O)c(O)cc2nc3cc(C(=O)NC(C(=O)O)C(C)C)ccc3nc12 (configuration not stated)
pEC50: < 4.85
pIC50: < 4.85

CCn1c2cc(C)c(C)cc2nc2cc3c(cc21)c(Cl)c(=O)c1ccccc13
pEC50: < 3.70
pIC50: < 3.70

Cc1cc(/C=C\c2ccnc3ccccc23)ccc1N(C)C
outcome: inactive

COc1ccc(/C=C2\CCC(C)c3c2nc(N)c(C#N)c3-c2ccc(OC)c(OC)c2)cc1OC (configuration not stated)
outcome: inactive

O=C(CC(c1ccccc1)c1c(O)c2ccccc2oc1=O)c1ccccc1 (configuration not stated)
pEC50: < 3.70
pIC50: 4.08

O=C1c2ccccc2CCCCCCCCCCC12OCCCO2
pEC50: < 3.70
pIC50: < 3.70

C=CC[C@H]1[C@@H](O[Si](C)(C)C(C)(C)C)[C@H](n2ccc(=O)[nH]c2=O)O[C@@H]1CO[Si](C)(C)C(C)(C)C
pEC50: < 3.70
pIC50: 5.00

COc1cccc(/C=N/[N-]C(N)=O)c1[O-].[Cu+2].[OH3+].c1cnc2c(c1)ccc1cccnc12
pEC50: < 4.40
pIC50: 4.79

O=C1/C(=C\Oc2ccc(F)cc2)N2CCC1CC2
pEC50: < 3.70
pIC50: 3.99

COC(=O)C(=O)C(C(=O)C(=O)Nc1ccccc1[N+](=O)[O-])c1nc2ccc([N+](=O)[O-])cc2[nH]c1=O (configuration not stated)
pEC50: < 3.57
pIC50: 3.61

Cc1ccccc1N=C(N)Nc1ccccc1C
pEC50: < 3.70
pIC50: < 3.70

CC(=O)C1C(=O)C(=O)N(c2ccccc2N2C(=O)C(=O)C(C(C)=O)C2=O)C1=O (configuration not stated)
outcome: inactive

CN(C)c1ccc(C2CC(c3ccc4ccccc4c3O)=NN2)cc1 (configuration not stated)
pEC50: < 3.70
pIC50: 4.22
